This passage reports EC50 results from patent US20160046592A1, “PHARMACEUTICAL COMPOSITION FOR THE TREATMENT OF DIABETES” (Ajinomoto Co., Inc., priority 2013, published 2016).

Each structure is given as a SMILES string.

The target in this experiment is T1, human GYS1 (glycogen synthase) (Homo sapiens, UniProt P13807).
T1 construct: made in house; host or cells: HEK293T
T1 sequence (P13807 1-737): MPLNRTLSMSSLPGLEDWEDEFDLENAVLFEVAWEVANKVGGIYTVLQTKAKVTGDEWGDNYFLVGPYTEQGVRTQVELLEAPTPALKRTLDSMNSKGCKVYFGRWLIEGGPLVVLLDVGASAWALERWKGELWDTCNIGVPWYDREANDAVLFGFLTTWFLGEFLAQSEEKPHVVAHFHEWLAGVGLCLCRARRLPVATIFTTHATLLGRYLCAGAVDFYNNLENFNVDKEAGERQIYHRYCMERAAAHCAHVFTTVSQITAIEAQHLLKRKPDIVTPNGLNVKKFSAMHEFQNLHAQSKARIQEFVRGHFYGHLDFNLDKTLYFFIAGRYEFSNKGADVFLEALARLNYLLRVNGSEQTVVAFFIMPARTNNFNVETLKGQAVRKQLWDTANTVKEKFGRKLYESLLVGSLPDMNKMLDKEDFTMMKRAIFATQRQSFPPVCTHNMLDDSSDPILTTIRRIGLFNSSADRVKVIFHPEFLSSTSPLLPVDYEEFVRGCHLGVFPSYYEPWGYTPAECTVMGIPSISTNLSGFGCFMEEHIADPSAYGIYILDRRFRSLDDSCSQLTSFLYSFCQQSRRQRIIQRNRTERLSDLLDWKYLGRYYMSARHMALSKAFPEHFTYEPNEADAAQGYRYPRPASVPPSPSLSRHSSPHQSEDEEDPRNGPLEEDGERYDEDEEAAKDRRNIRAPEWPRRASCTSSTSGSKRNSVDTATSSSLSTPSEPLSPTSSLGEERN
In words: Measurement of glycogen synthase activity. The experiment is classed as biochemical. The conditions noted are these: concentration causing 50% increase in relative activity; 100% = compound of Example 1 of WO/2011/058154 at 10 μM; 10 mM Glucose-6-phosphate; 37° C. for 25 minutes (Examples 1 to 61 and 67 to 82) or 20 minutes (Examples 62 to 66); absorbance at 340 nm. Summed up:
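Human GYS1 from transfected HEK293T cells (re-dissolved 16000×g pellet) was reacted at 37 °C for 25 or 20 min in glycylglycine pH 7.3 with glucose-6-phosphate, glycogen and UDP-glucose. PK/LDH-coupled NADH read-out at 340 nm; EC50 from activity relative to a reference activator at 10 μM final (100%).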
The molecule `CSc1cc(F)c(F)cc1-c1ccc(OCc2cccc(C(=O)N(CC(=O)O)Cc3ccn[nH]3)c2)cc1` [Example 54, 2-[[3-[[4-(4,5-Difluoro-2-methylsulfanyl-phenyl)phenoxy]methyl]benzoyl]-(1H-pyrazol-5-ylmethyl)amino]acetic Acid] came in with an EC50 of 15 nM.

The molecule `CSc1cc(F)c(F)cc1-c1ccc(OCc2cccc(C(=O)N(CC(=O)O)Cc3ccnn3C)c2)cc1` [Example 55, 2-[[3-[[4-(4,5-Difluoro-2-methylsulfanyl-phenyl)phenoxy]methyl]benzoyl]-[(2-methylpyrazol-3-yl)methyl]amino]acetic Acid] yielded an EC50 of 22 nM. `CNS(=O)(=O)CCN(CC(=O)O)C(=O)c1cccc(COc2ccc(-c3cc(F)c(F)cc3SC)cc2)c1` [Example 56, 2-[[3-[[4-(4,5-Difluoro-2-methylsulfanyl-phenyl)phenoxy]methyl]benzoyl]-[2-(methylsulfamoyl)ethyl]amino]acetic Acid] yielded an EC50 below 3 nM.

Molecule `CSc1cc(F)c(F)cc1-c1ccc(OCc2cccc(C(=O)N(CCS(=O)(=O)N(C)C)CC(=O)O)c2)cc1` [Example 59, 2-[[3-[[4-(4,5-Difluoro-2-methylsulfanyl-phenyl)phenoxy]methyl]benzoyl]-[2-(dimethylsulfamoyl)ethyl]amino]acetic Acid] came in with an EC50 of 16 nM. In the case of `CSc1cc(F)c(F)cc1-c1ccc(OCc2cccc(C(=O)N(CCc3noc(C)n3)CC(=O)O)c2)cc1` [Example 60, 2-[[3-[[4-(4,5-Difluoro-2-methylsulfanyl-phenyl)phenoxy]methyl]benzoyl]-[2-(5-methyl-1,2,4-oxadiazol-3-yl)ethyl]amino]acetic Acid] it was 11 nM; in that of `CSc1cc(F)c(F)cc1-c1ccc(OCc2cccc(C(=O)N3C[C@H](C(N)=O)C[C@H]3C(=O)O)c2)cc1` [Example 61, (2S,4R)-4-Carbamoyl-1-[3-[[4-(4,5-difluoro-2-methylsulfanyl-phenyl)phenoxy]methyl]benzoyl]pyrrolidine-2-carboxylic Acid], 19 nM. The value for `CSc1cc(F)c(F)cc1-c1ccc(OCc2cccc(C(=O)N3[C@@H](CO)CC[C@H]3C(=O)O)c2)cc1` [Example 64, (2S,5R)-1-[3-[[4-(4,5-Difluoro-2-methylsulfanyl-phenyl)phenoxy]methyl]benzoyl]-5-(hydroxymethyl)pyrrolidine-2-carboxylic Acid] was 22 nM; that for `COC[C@H]1CC[C@@H](C(=O)O)N1C(=O)c1cccc(COc2ccc(-c3cc(F)c(F)cc3SC)cc2)c1` [Example 65, (2S,5R)-1-[3-[[4-(4,5-Difluoro-2-methylsulfanyl-phenyl)phenoxy]methyl]benzoyl]-5-(methoxymethyl)pyrrolidine-2-carboxylic Acid] was 18 nM. Molecule `CSc1cc(F)c(F)cc1-c1ccc(OCc2cccc(C(=O)N(CC(=O)O)Cc3ccon3)c2)cc1` [Example 66, 2-[[3-[[4-(4,5-Difluoro-2-methylsulfanyl-phenyl)phenoxy]methyl]benzoyl]-(isoxazol-3-ylmethyl)amino]acetic Acid] displayed an EC50 of 15 nM. In the case of `CSc1cc(F)c(F)cc1-c1ccc(OCc2cccc(C(=O)N(CC(=O)O)Cc3coc(C)n3)c2)cc1` [Example 67, 2-[[3-[[4-(4,5-Difluoro-2-methylsulfanyl-phenyl)phenoxy]methyl]benzoyl]-[(2-methyloxazol-4-yl)methyl]amino]acetic Acid] it was 13 nM; in that of `CSc1cc(F)c(F)cc1-c1ccc(OCc2cccc(C(=O)N(CC(=O)O)Cc3nc(C)no3)c2)cc1` [Example 68, 2-[[3-[[4-(4,5-Difluoro-2-methylsulfanyl-phenyl)phenoxy]methyl]benzoyl]-[(3-methyl-1,2,4-oxadiazol-5-yl)methyl]amino]acetic Acid], below 3 nM. The value for `CSc1cc(F)c(F)cc1-c1ccc(OCc2cccc(C(=O)N(CC(=O)O)Cc3noc(C)n3)c2)cc1` [Example 69, 2-[[3-[[4-(4,5-Difluoro-2-methylsulfanyl-phenyl)phenoxy]methyl]benzoyl]-[(5-methyl-1,2,4-oxadiazol-3-yl)methyl]amino]acetic Acid] was 20 nM; that for `CSc1cc(F)c(F)cc1-c1ccc(OCc2cccc(C(=O)N(CCn3cncn3)CC(=O)O)c2)cc1` [Example 70, 2-[[3-[[4-(4,5-Difluoro-2-methylsulfanyl-phenyl)phenoxy]methyl]benzoyl]-[2-(1,2,4-triazol-1-yl)ethyl]amino]acetic Acid] was 21 nM; that for `CSc1cc(F)c(F)cc1-c1ccc(OCc2cccc(C(=O)N(CC(=O)O)Cc3cscn3)c2)cc1` [Example 71, 2-[[3-[[4-(4,5-Difluoro-2-methylsulfanyl-phenyl)phenoxy]methyl]benzoyl]-(thiazol-4-ylmethyl)amino]acetic Acid] was 17 nM. In the case of `CSc1cc(F)c(F)cc1-c1ccc(OCc2cccc(C(=O)N3C(CC#N)CC[C@H]3C(=O)O)c2)cc1` (stereo partly drawn) [Example 72, (2S)-5-(Cyanomethyl)-1-[3-[[4-(4,5-difluoro-2-methylsulfanyl-phenyl)phenoxy]methyl]benzoyl]pyrrolidine-2-carboxylic Acid] it was 11 nM; in that of `CSc1cc(F)c(F)cc1-c1ccc(OCc2cccc(C(=O)N(CC(=O)O)Cc3nnc(C)o3)c2)cc1` [Example 73, 2-[[3-[[4-(4,5-Difluoro-2-methylsulfanyl-phenyl)phenoxy]methyl]benzoyl]-[(5-methyl-1,3,4-oxadiazol-2-yl)methyl]amino]acetic Acid], 15 nM. As to `CSc1cc(F)c(F)cc1-c1ccc(OCc2cccc(C(=O)N(CC(=O)O)Cc3cn(C)cn3)c2)cc1` [Example 74, 2-[[3-[[4-(4,5-Difluoro-2-methylsulfanyl-phenyl)phenoxy]methyl]benzoyl]-[(1-methylimidazol-4-yl)methyl]amino]acetic Acid], the EC50 was found to be 8 nM. In the case of `N#CCCN(CC(=O)O)C(=O)c1cccc(COc2ccc(-c3cc(F)c(F)c4ccoc34)cc2)c1` [Example 75, 2-[2-Cyanoethyl-[3-[[4-(4,5-difluorobenzofuran-7-yl)phenoxy]methyl]benzoyl]amino]acetic Acid] it was 22 nM.

Take `CS(=O)(=O)CCCN(CC(=O)O)C(=O)c1cccc(COc2ccc(-c3cc(F)c(F)c4ccoc34)cc2)c1` [Example 77, 2-[[3-[[4-(4,5-Difluorobenzofuran-7-yl)phenoxy]methyl]benzoyl]-(3-methylsulfonylpropyl)amino]acetic Acid]: the EC50 was 20 nM. The value for `CO[C@H]1CCN(C(=O)c2cccc(COc3ccc(-c4cc(F)c(F)c5ccoc45)cc3)c2)[C@@H]1C(=O)O` [Example 78, (2S,3S)-1-[3-[[4-(4,5-Difluorobenzofuran-7-yl)phenoxy]methyl]benzoyl]-3-methoxy-pyrrolidine-2-carboxylic Acid] was 20 nM; that for `NC(=O)CCN(CC(=O)O)C(=O)c1cccc(COc2ccc(-c3cc(F)c(F)c4ccoc34)cc2)c1` [Example 79, 2-[(3-Amino-3-oxo-propyl)-[3-[[4-(4,5-difluorobenzofuran-7-yl)phenoxy]methyl]benzoyl]amino]acetic Acid] was 22 nM. The value for `COC[C@H](C)N(CC(=O)O)C(=O)c1cccc(COc2ccc(-c3cc(F)c(F)c4ccoc34)cc2)c1` [Example 80, 2-[[3-[[4-(4,5-Difluorobenzofuran-7-yl)phenoxy]methyl]benzoyl]-[(1S)-2-methoxy-1-methyl-ethyl]amino]acetic Acid] was 24 nM; that for `CC(=O)N1CCC(CN(CC(=O)O)C(=O)c2cccc(COc3ccc(-c4cc(F)c(F)c5ccoc45)cc3)c2)CC1` [Example 81, 2-[(1-Acetyl-4-piperidyl)methyl-[3-[[4-(4,5-difluorobenzofuran-7-yl)phenoxy]methyl]benzoyl]amino]acetic Acid] was 20 nM; that for `O=C(O)CN(C(=O)c1cccc(COc2ccc(-c3cc(F)c(F)c4ccoc34)cc2)c1)C1CCNC1=O` (stereo not drawn) [Example 82, 2-[[3-[[4-(4,5-Difluorobenzofuran-7-yl)phenoxy]methyl]benzoyl]-(2-oxopyrrolidin-3-yl)amino]acetic Acid] was 19 nM.
